From patent publication US9808434B2, “Compound for treating cancer and diabetes” (CITY OF HOPE, priority 2011, dated 2017) come the findings set out here.

For orientation: IC50 means the concentration that inhibits the measured activity by half. A low value points to inhibition by little substance.

The subject of experiment [1] is H358 lung cancer tumor. Description: Histopathology of H358 tumor sections. It is filed as in vivo, mouse. Particulars: treated vs control. The procedure:
For lung cancer studies, control and COH-SR4 treated H358 lung cancer bearing mice tumor sections were used for histopathologic analyses. Immuno-histochemistry analyses were performed for Ki67, CD31, E-cadherin, and pAMPK expressions. […] Sections were counterstained with Hematoxylin (blue). Photomicrographs at 40× magnification were acquired using Olympus DP 72 microscope and were processed with DP2-BSW software. Percent staining was determined by measuring positive immuno-reactivity per unit area. The intensity of antigen staining was quantified by digital image analysis using Image Pro plus 6.3 software.
Control and COH-SR4 treated tumor sections obtained from the in-vivo animal studies of Example 31 were used for histopathologic analyses. […] Arrows represent the area for positive staining for an antigen. Bars represent means with 95% confidence intervals (n=5). Asterisks denote statistically significant differences (p<0.001) compared with control by two-sided Student's t test. Statistical significance of difference was determined following image analyses as described in methods section.

Experiment [2] relates to PBT-017 glioma cells. In words: Apoptosis of PBT-017 glioma cells, cell counts. It is filed as cell-based. Particulars: 2 or 10 μM, 4 days. The procedure:
PBT-017 glioma cells were incubated with nothing (control), DMSO, and COH-SR4 at 2 μM or 10 μM for 4 days.

The subject of experiment [3] is Hs600T. Description: MTT assay, Hs600T. It is filed as cell-based. As to conditions: Homo sapiens. The procedure: Cell density measurements were performed using a hemocytometer to count reproductive cells resistant to staining with trypan blue. Approximately 20,000 cells were plated into each well of 96-well flat-bottomed micro-titer plates. After 12 h or 24 h incubation at 37° C., medium containing either COH-SR4 (ranging 0-200 μM) or elesclomol (ranging 0-20 μM) were added to the cells. After 24 h, 48 h or 96 h incubation, 20 μL of 5 mg/mL MTT were introduced to each well and incubated for 2 h. The plates were centrifuged and medium was decanted. Cells were subsequently dissolved in 100 μl DMSO with gentle shaking for 2 h at room temperature, followed by measurement of OD570 (91).
Cells of highly aggressive mouse melanoma cell line B16-F0 or human melanoma cell line Hs600T were incubated with various doses of COH-SR4 (1, 2.5, 5, 10, 25, 50, or 100 μM). The cell viabilities after treatment of 48 hours and 96 hours were measured and summarized in FIGS. 54A and 55A, respectively. […] Data were presented as mean±Standard Deviation from two separate determinations with eight replicate each (n=16).
(Tetrazolium assays rely on reduction of a dye to a coloured formazan, in cell work by metabolically active cells.)

Experiment [4] deals with AMPK. Description: AMPK activation in HL-60 cells, Western blot. The experiment is classed as cell-based, human. As to conditions: 1 hour. The procedure: (§1) Activation of AMPK was associated with the phosphorylation of the α-subunit on Thr-172 of as assessed using phospho-specific antibodies (FIGS. 10A-B). AMPK activation also leads to the increased phosphorylation of the target protein acetyl-CoA carboxylase (ACC) (FIG. 10B).
(§2) Cells of each cell lines (Hela, HL-60, and 3T3-L1) were treated for 1 hour with a test compound (COH-SR4, COH-SR9, COH-SR16, or COH-SR18) at a concentration of 1 μM, 3 μM, or 5 μM, or AICAR (5-aminoimidazole-4-carboxamideriboside, an AMPK agonist used as positive control) at a concentration of 500 μM, or none of the above (the untreated cells as negative control). Total cell lysates from the untreated cells and the cells treated with a test compound or AICAR were analyzed by Western blot assay using specific antibodies against phospho-AMPK, phospho-ACC, total AMPK and total ACC.

For experiment [5], the system named is PBT-017. In words: Glioma ATP viability assay, PBT-017. It is filed as cell-based. As to conditions: 72 h. The procedure: Cells of each cell line (U251, U87, PBT-017, PBT018, PBT003 and PBT028) were treated with various concentrations (0˜100 μM) of COH-SR4 for 72 hours. Cell viabilities were determined by ATP viability assays. Data were represented as a ratio to vehicle (DMSO) control, and plotted as mean±SEM (n=12) obtained from 2˜3 experiments (FIG. 34A).
Cells of each cell line (U87, U251, PBT003 and PVT-017) were treated with various concentrations (0˜100 μM) of COH-SR4 for 72 hours. Cell viabilities were determined by ATP viability assays. Data were represented as a ratio to vehicle (DMSO) control, and plotted as mean±SEM (n=12) obtained from 2-3 experiments (FIG. 34B).
Cells of each cell line were treated with various concentrations (0˜100 μM) of COH-SR4 or various concentrations (0˜1000 μM) of TMZ for 72 hours. Cell viabilities were determined by ATP viability assays. Data were represented as a ratio to untreated cells as control, and plotted as mean±SEM (n=12) obtained from 2˜3 experiments (FIGS. 43A-B).

Experiment [6] concerns AMPK. Description: AMPK activation in 3T3-L1 cells, Western blot. It is filed as cell-based, mouse. Particulars: 1 hour. The procedure: as §1, §2
On the technique in general: Immunoblotting shows a protein as a band on a membrane.

For experiment [7], the system named is GST. In words: GST activity towards CDNB in lung cancer cell supernatants. It is filed as biochemical, human. Particulars: H1417, H1618, H520, H358 supernatants; 1 mM GSH and CDNB. The method, then: In the context of the elevation of GSTs in lung cancer, the impact of COH-SR4 on the catalytic activity of GSTs towards 1-chloro 2,4-dinitro benzene (CDNB), a model substrate used for GST activity was analyzed. GST activity towards 1-chloro 2,4-dinitro benzene (CDNB) and its inhibition by COH-SR4 was performed in 28000×g crude supernatant prepared from H1417, H1618, H520 and H358 cells. The inhibitory effect of COH-SR4 on GST was studied at a fixed concentration of GSH and CDNB (1 mM each) and varying concentrations of inhibitor. The enzymes were pre-incubated with the inhibitor for 5 min at 37° C. prior to the addition of the substrates. The experiment was repeated three times and similar results were obtained. […] Human liver purified GST was used as a control (FIG. 79B, inset). GSTs are a class of phase II detoxifying enzymes, which regulate detoxification of administered chemotherapy drugs for further efflux out of cells by transport proteins. The GST inhibition leads to accumulation of toxic end-products of lipid peroxidation due to decreased efflux of GS-HNE which also reinforces the GST inhibition by feedback inhibition. The over-expression of GSTs is a common phenomenon associated with malignant progression of many cancers including lung cancer, melanomas skin and prostate cancers. […]

SMILES strings stand for the structures.

On to `O=C(Nc1cc(Cl)cc(Cl)c1)Nc1cc(Cl)cc(Cl)c1` [COH-SR4, 1,3-bis(3,5-dichlorophenyl) urea], for which, in experiment [1] (ABC staining), the “Ki67 and CD31 levels” value was “decreased the levels of proliferation marker Ki67, and angiogenesis marker CD31”. Also, in experiment [1], the “pAMPK and E-cadherin levels” value is “increased the levels of pAMPK and normal differentiation marker E-cadherin”. Further, in experiment [2], the “fraction of apoptotic cells” value is given as “increased the fraction of apoptotic cells”. Also, the IC50 in experiment [3] (48 h) was about 10 µM; in experiment [3] (96 h) it was about 6 µM; in experiment [5] (Table 1) it was 2 µM; in experiment [5] (Table 2), 2.1 µM. Also, the AMPK activation result in experiment [4] and in experiment [6] was “activated AMPK” each time. The “total GST activity towards CDNB” value in experiment [7] is recorded as “inhibited the total GST activity to a significant extent”.
